Results: PubChem BioAssay AID248 (DTP/NCI, 2004)
Where “and” joins values, the source holds several entries; their conditions need not be identical. Identical values can stand only once. Inconclusive results and toxic doses are left out. No stated cut-off is given here; in the data, active means T/C of 150% or more; inactive means T/C below 125%.

System: L1210 leukemia ip in BDF1 mice, survival T/C
Assay: NCI In Vivo Anticancer Drug Screen. Data for tumor model L1210 Leukemia (intraperitoneal) in B6D2F1 (BDF1) mice
Settings: endpoint: mean survival time, higher = longer survival
In short: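 Mice bearing the transplanted tumor received compound or vehicle. Survival of the treated group was divided by that of the vehicle-treated control group to give the ratio.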

[1] = dose: 100.0 mg/kg/injection, schedule: Q04DX003 (ip), vehicle: saline
[2] = dose: 200.0 mg/kg/injection, schedule: Q04DX003 (ip), vehicle: saline
[3] = dose: 400.0 mg/kg/injection, schedule: Q04DX003 (ip), vehicle: saline
[4] = dose: 100.0 mg/kg/injection, schedule: Q01DX009 (ip), vehicle: Klucel (hydroxypropylcellulose) (HPC)
[5] = dose: 100.0 mg/kg/injection, schedule: Q04DX003 (ip), vehicle: Klucel (hydroxypropylcellulose) (HPC)
[6] = dose: 200.0 mg/kg/injection, schedule: Q04DX003 (ip), vehicle: Klucel (hydroxypropylcellulose) (HPC)
[7] = dose: 400.0 mg/kg/injection, schedule: Q04DX003 (ip), vehicle: Klucel (hydroxypropylcellulose) (HPC)
[8] = dose: 100.0 mg/kg/injection, schedule: Q01DX001 (ip), vehicle: carboxymethylcellulose (CMC)
[9] = dose: 200.0 mg/kg/injection, schedule: Q01DX001 (ip), vehicle: carboxymethylcellulose (CMC)
[10] = dose: 400.0 mg/kg/injection, schedule: Q01DX001 (ip), vehicle: carboxymethylcellulose (CMC)
[11] = dose: 100.0 mg/kg/injection, schedule: Q01DX001 (ip), vehicle: saline
[12] = dose: 200.0 mg/kg/injection, schedule: Q01DX001 (ip), vehicle: saline

Measured: T/C

O=C(CCCCCCCCC(=O)N/N=C/c1ccc(O)cc1)N/N=C/c1ccc(O)cc1
inactive: dose: 100.0 mg/kg/injection, schedule: Q01DX001 (ip), vehicle: saline with Tween-80 90 % of control | dose: 100.0 mg/kg/injection, schedule: Q01DX009 (ip), vehicle: saline with Tween-80 89 % of control and 92 % of control | dose: 100.0 mg/kg/injection, schedule: Q04DX002 (ip), vehicle: saline with Tween-80 97 % of control and 100 % of control | [1] 97 % of control | dose: 200.0 mg/kg/injection, schedule: Q01DX001 (ip), vehicle: saline with Tween-80 92 % of control | dose: 200.0 mg/kg/injection, schedule: Q01DX009 (ip), vehicle: saline with Tween-80 100 % of control and 87 % of control | dose: 200.0 mg/kg/injection, schedule: Q04DX002 (ip), vehicle: saline with Tween-80 95 % of control and 97 % of control | [2] 92 % of control | dose: 400.0 mg/kg/injection, schedule: Q01DX001 (ip), vehicle: saline with Tween-80 95 % of control | dose: 400.0 mg/kg/injection, schedule: Q01DX009 (ip), vehicle: saline with Tween-80 101 % of control and 87 % of control | dose: 400.0 mg/kg/injection, schedule: Q04DX002 (ip), vehicle: saline with Tween-80 94 % of control and 92 % of control | [3] 88 % of control

CNC(=O)Nc1ccc(C)c(Cl)c1
inactive: [4] 100 % of control | [5] 102 % of control | dose: 200.0 mg/kg/injection, schedule: Q01DX009 (ip), vehicle: Klucel (hydroxypropylcellulose) (HPC) 90 % of control | [6] 102 % of control | dose: 400.0 mg/kg/injection, schedule: Q01DX009 (ip), vehicle: Klucel (hydroxypropylcellulose) (HPC) 106 % of control | [7] 104 % of control

O=C1NC(c2cccc3ccccc23)Nc2cc(Cl)ccc21 (configuration not stated)
inactive: dose: 50.0 mg/kg/injection, schedule: Q01DX009 (ip), vehicle: Klucel (hydroxypropylcellulose) (HPC) 109 % of control | [4] 112 % of control | dose: 150.0 mg/kg/injection, schedule: Q01DX009 (ip), vehicle: Klucel (hydroxypropylcellulose) (HPC) 118 % of control

Cc1cccc(NC(=O)OCCN(CCOC(=O)Nc2cccc(C)c2)Cc2ccccc2)c1
inactive: dose: 50.0 mg/kg/injection, schedule: Q01DX001 (ip), vehicle: carboxymethylcellulose (CMC) 90 % of control | [8] 98 % of control | [9] 104 % of control | [10] 90 % of control

Cc1ccccc1N1CCN(CCC(=O)c2cc3ccccc3o2)CC1
inactive: dose: 5.0 mg/kg/injection, schedule: Q01DX009 (ip), vehicle: saline with Tween-80 104 % of control | dose: 9.5 mg/kg/injection, schedule: Q04DX003 (ip), vehicle: saline with Tween-80 96 % of control | dose: 10.0 mg/kg/injection, schedule: Q01DX009 (ip), vehicle: saline with Tween-80 100 % of control | dose: 18.0 mg/kg/injection, schedule: Q01DX001 (ip), vehicle: saline with Tween-80 94 % of control | dose: 19.0 mg/kg/injection, schedule: Q04DX003 (ip), vehicle: saline with Tween-80 116 % of control | dose: 20.0 mg/kg/injection, schedule: Q01DX009 (ip), vehicle: saline with Tween-80 106 % of control | dose: 37.5 mg/kg/injection, schedule: Q01DX001 (ip), vehicle: saline with Tween-80 101 % of control

CCOC(=O)CCC1(CN2c3ccccc3Sc3ccccc32)CCN(C)C1 (configuration not stated)
inactive: [11] 87 % of control

Cc1cccc(C(=O)O)n1
inactive: dose: 100.0 mg/kg/injection, schedule: Q01DX009 (ip), vehicle: saline 103 % of control | [1] 104 % of control | dose: 200.0 mg/kg/injection, schedule: Q01DX009 (ip), vehicle: saline 113 % of control | [2] 101 % of control | dose: 400.0 mg/kg/injection, schedule: Q01DX009 (ip), vehicle: saline 93 % of control | [3] 95 % of control

Clc1ccccc1C=Nc1ccc2c(c1)Cc1ccccc1-2
inactive: dose: 100.0 mg/kg/injection, schedule: Q01DX001 (ip), vehicle: Klucel (hydroxypropylcellulose) (HPC) 87 % of control | [5] 101 % of control | dose: 200.0 mg/kg/injection, schedule: Q01DX001 (ip), vehicle: Klucel (hydroxypropylcellulose) (HPC) 93 % of control | [6] 94 % of control | dose: 400.0 mg/kg/injection, schedule: Q01DX001 (ip), vehicle: Klucel (hydroxypropylcellulose) (HPC) 87 % of control | [7] 101 % of control

[O-][P+](=NC12CC3CC(CC(C3)C1)C2)c1ccccc1 (configuration not stated)
inactive: dose: 75.0 mg/kg/injection, schedule: Q04DX003 (ip), vehicle: Klucel (hydroxypropylcellulose) (HPC) 99 % of control | dose: 150.0 mg/kg/injection, schedule: Q04DX003 (ip), vehicle: Klucel (hydroxypropylcellulose) (HPC) 101 % of control | dose: 300.0 mg/kg/injection, schedule: Q04DX003 (ip), vehicle: Klucel (hydroxypropylcellulose) (HPC) 100 % of control

O=C(COc1cc(Cl)c(Cl)cc1Cl)Nc1ccc(N=Nc2ccccc2)cc1
inactive: dose: 100.0 mg/kg/injection, schedule: Q04DX002 (ip), vehicle: Klucel (hydroxypropylcellulose) (HPC) 99 % of control | dose: 200.0 mg/kg/injection, schedule: Q04DX002 (ip), vehicle: Klucel (hydroxypropylcellulose) (HPC) 99 % of control | dose: 400.0 mg/kg/injection, schedule: Q04DX002 (ip), vehicle: Klucel (hydroxypropylcellulose) (HPC) 86 % of control

O=C(O)C(CS(=O)(=O)O)Nc1ncnc2nc[nH]c12 (configuration not stated)
inactive: [11] 93 % of control | [12] 98 % of control | dose: 400.0 mg/kg/injection, schedule: Q01DX001 (ip), vehicle: saline 98 % of control

CCCCCCCCCCCCC(=O)N1CCOCC1
inactive: dose: 100.0 mg/kg/injection, schedule: Q04DX003 (ip), vehicle: saline with Tween-80 122 % of control | dose: 200.0 mg/kg/injection, schedule: Q04DX003 (ip), vehicle: saline with Tween-80 107 % of control | dose: 400.0 mg/kg/injection, schedule: Q04DX003 (ip), vehicle: saline with Tween-80 104 % of control

O=C1c2cccc3cc([N+](=O)[O-])cc(c23)C(=O)N1CC1CCCO1 (configuration not stated)
inactive: dose: 100.0 mg/kg/injection, schedule: Q04DX003 (ip), vehicle: carboxymethylcellulose (CMC) 94 % of control | dose: 200.0 mg/kg/injection, schedule: Q04DX003 (ip), vehicle: carboxymethylcellulose (CMC) 96 % of control | dose: 400.0 mg/kg/injection, schedule: Q04DX003 (ip), vehicle: carboxymethylcellulose (CMC) 107 % of control

CC1=CC(C)(C)NC(=S)N1c1cccc2ccccc12
inactive: dose: 75.0 mg/kg/injection, schedule: Q01DX009 (ip), vehicle: saline with Tween-80 90 % of control | dose: 150.0 mg/kg/injection, schedule: Q01DX009 (ip), vehicle: saline with Tween-80 87 % of control | dose: 224.0 mg/kg/injection, schedule: Q01DX Z (ip), vehicle: methylcellulose (MC) 94 % of control | dose: 300.0 mg/kg/injection, schedule: Q01DX009 (ip), vehicle: saline with Tween-80 88 % of control | dose: 334.0 mg/kg/injection, schedule: Q01DX Z (ip), vehicle: methylcellulose (MC) 86 % of control | dose: 500.0 mg/kg/injection, schedule: Q01DX Z (ip), vehicle: methylcellulose (MC) 88 % of control | dose: 750.0 mg/kg/injection, schedule: Q01DX Z (ip), vehicle: methylcellulose (MC) 102 % of control

CN(C)Cc1ccnc(Cl)n1
inactive: dose: 2.0 mg/kg/injection, schedule: Q01DX Z (ip), vehicle: methylcellulose (MC) 93 % of control

CCN(CC)CCOc1ccc(C2=C(c3ccccc3)CCc3cc(OC)ccc32)cc1
inactive: [8] 90 % of control | [9] 92 % of control | [10] 90 % of control

CC(C)(CO)C(O)C(=O)NN (configuration not stated)
inactive: [11] 91 % of control | [12] 94 % of control

CCC(CC)(COC(C)=O)C[N+](C)(C)C
inactive: [11] 103 % of control | [1] 94 % of control | [12] 95 % of control | [2] 102 % of control
